In patent US5902794A (priority 1997, dated 1999):
“Also recorded” adds a separate entry of the source. Read-outs that look alike come from different tables or passages of the source.

Experiments:
[1] = system: breast (MCF-7) and (LS-174T) colon cancer cell lines; assay: growth inhibition of breast (MCF-7) and colon (LS-174T) cancer cell lines; format: cell-based, human; conditions: 50 micromolar
[2] = system: R^I cAMP receptor protein (MDA-MB-231); assay: photoaffinity labelling of R^I cAMP receptor protein, MDA-MB-231; format: cell-based, human; conditions: 1 mM, 3 days; control 1.0
Protocol: (§1) M is marker proteins of known molecular weight.
(§2) The incubations were carried out at 23° C. for 60 minutes in 96-well immunoplates. The reaction mixtures were then irradiated for 30 seconds at 254 nm, placing a Mineralite UVS-11 hand lamp directly onto the plate. The samples were mixed with 25 microliters of 3× sample buffer (3% SDS, 15% beta-mercaptoethanol, 30 mM Tris, 30% glycerol, 1% bromophenol blue saturated solution), boiled for 3 minutes, and centrifuged at 700×g for five minutes. The samples containing 50-100 micrograms of protein were subjected to 0.05% SDS-12% PAGE. The gels were fixed, dried, and exposed to X-ray films overnight. The protein concentrations were determined by the method of Lowry et al., (J. Biol. Chem. 193: 265-275, 1951) with bovine serum albumin as standard.
(§3) The levels of the receptor proteins are expressed relative to the R^I level in the untreated control cells of MDA-MB-231 and LS-174T, which are each set equal to 1.0 O.D.; the scale was expanded to differentiate the lower intensity bands.

[3] = system: R^II cAMP receptor protein (MDA-MB-231); assay: photoaffinity labelling of R^II cAMP receptor protein, MDA-MB-231; format: cell-based, human; conditions: 1 mM, 3 days; relative to control R^I
Protocol: as §1, §2, §3

[4] = system: R^I cAMP receptor protein (LS-174T); assay: photoaffinity labelling of R^I cAMP receptor protein, LS-174T; format: cell-based, human; conditions: 1 mM, 3 days; control 1.0
Protocol: as §1, §2, §3

[5] = system: R^II cAMP receptor protein (LS-174T); assay: photoaffinity labelling of R^II cAMP receptor protein, LS-174T; format: cell-based, human; conditions: 1 mM, 3 days; relative to control R^I
Protocol: as §1, §2, §3

[6] = system: MDA-MB-231; assay: growth of MDA-MB-231 cells; format: cell-based; conditions: Homo sapiens, MDA-MB-231, 72 h; 1 mM, 3 days
Protocol: as §1
(§4) All breast cancer cell lines were grown in IMEM supplemented with 10% fetal bovine serum, 20 mM HEPES, penicillin-streptomycin, and extra glutamine. Colon carcinoma cell lines were grown in EMEM supplemented with 10% FBS, EMEM, NEAA, HEPES 20 mM, extra glutamine, and penicillin-streptomycin. The cells were grown at 37° C. in humidified incubators in an atmosphere of 5% CO2.
(§5) For cell growth experiments, 2-3×10^5 cells/60 mm dish were seeded, and 24 hours later (Day 0), the medium was removed, and fresh medium and the additives were added then and every 48 hours thereafter The compounds of the present invention were added using 100× concentrated stock solutions. At desired times, cell counts in duplicate were performed on a Coulter counter after harvesting the cells with gentle trypsinization.

[7] = system: LS-174T; assay: growth of LS-174T cells; format: cell-based; conditions: Homo sapiens, LS174T, 72 h; 1 mM, 3 days
Protocol: as §1, §4, §5

[8] = system: R^I and R^II cAMP receptor proteins in breast (MDA-MB-231) and colon (LS-174T) cancer cells; assay: R^I and R^II cAMP receptor protein levels in breast and colon cancer lines (FIG. 6); format: cell-based, human; conditions: DBcAMP 1 mM
Protocol: as §1, §2

[9] = system: p21 ras protein (MCF-7 cells); assay: Western blotting of p21 ras protein in MCF-7 cells; format: cell-based, human; conditions: 500 microM
Protocol: Western blotting of p21 protein was performed as described below. […] V is cell lysate from Ha-MuSV-transformed NIH3T3 clone 13-3B-4. M, marker proteins of known molecular weight.
Cellular proteins present in cell extracts were separated by 12% SDS-PAGE and transferred to nitrocellulose sheets in transfer buffer (25 mM Tris, 192 mM glycine, 20% methanol, pH 7.4). Nitrocellulose sheets were washed and first incubated with 3% bovine serum albumin in NTE-NP40 (50 mM Tris-HCl, pH 7.5, 150 mM NaCl, 2 mM EDTA, 0.1% Nonidet P-40) for three hours at 37° C. and then sequentially incubated with medium containing p21 monoclonal antiserum Y13-259 directed against the Ha-MuSV-encoded p21 for sixteen hours at 4° C., rabbit anti-rat IgG for 2.5 hours in an ice-water bath, and 5×10^5 cpm/ml ^125 I-protein A for one hour in an ice-water bath. The nitrocellulose sheets were air-dried and exposed to Kodak XAR film for 12-36 hours at -20° C. Comparison of the resulting autoradiograms with others in which normal rat serum was substituted for p21 monoclonal antibody permitted identification of p21. To provide a reference p21, cell lysates were prepared from NIH 3T3 clone 13-3B-4 that had been transfected with Ha-MuSV DNA.
The levels of p21 protein are expressed relative to the p21 level in the untreated control cells, which is set equal to 1.0 O.D.

[10] = system: DMBA-1; assay: growth of transplantable DMBA-1 rat mammary carcinoma; format: in vivo; conditions: pellet with 10 mg cAMP analogue, day 7
Protocol: DMBA-1, a variant of primary hormonedependent DMBA tumor,
hormoneindependent and transplantable.
8Cl-cAMP and DBcAMP were given as a 20mg pellet consisting of 10 mg of […]

[11] = system: DMBA-induced mammary carcinomas; assay: in vivo growth of DMBA-induced mammary carcinomas in rats; parameters: species or system rat; conditions: DBcAMP treatment
Protocol: […] |DMBA-induced mammary carcinomas in rats […] | 10 mg. cholesterol), was implanted on day 0 and day 14.

[12] = system: transplantable DMBA-1 and MNA-2 rat mammary carcinomas; assay: short-term assays with transplantable rat mammary carcinomas; format: in vivo; conditions: DB-cAMP pellet
[13] = system: Molt-4; assay: growth inhibition of Molt-4; format: cell-based, human
[14] = system: R^I cAMP receptor protein (Molt-4); assay: R^I cAMP receptor protein in Molt-4 leukemic cells; format: cell-based, human; conditions: 1 mmol/L, three days
Source text: (§6) M marker proteins of known molecular weight. […] The resulting supernatants were used as cell lysates. […] ND=nondetectable.

[15] = system: c-myc protein; assay: c-myc protein level, Western blotting (FIG. 9B); format: cell-based, human; conditions: 1 mmol/L, three days
Protocol: The cells were grown in suspension culture in RPMI 1640 medium supplemented with 10% fetal bovine serum, penicillin (50 U/ml), streptomycin ([…]), 10 mmol/L HEPES buffer, and extra glutamine. […] Surface antigen analysis of HL-60 cells was performed by flow cytometry using a panel of monoclonal antibodies reactive with either myeloid cells or monocytic cells. Terminal deoxynucleotidyl transferase (TdT) was assayed by an immunoperoxidase method using a TdT fluorescence kit. Western blotting of c-myc protein was performed using c-myc antibody 15206D11 (Scripps Clinic and Research Foundation, LaJolla, Calif.).
as §6

[16] = system: hormone-dependent breast cancer lines; conditions: millimolar concentrations; previously reported; cited from earlier work
[17] = system: human oat cell lung carcinoma cells; conditions: in vitro; cited from earlier work
[18] = system: spindle cell sarcoma with multiple metastasis; conditions: cited from earlier work
[19] = system: hormone-dependent mammary tumors / DMBA-induced mammary carcinomas; conditions: cited from earlier work
[20] = system: neuroblastoma cells; conditions: conflicting studies; cited from earlier work
[21] = system: cultured human fibroblasts; conditions: cited from earlier work

SMILES: CCCC(=O)Nc1ncnc2c1ncn2[C@@H]1O[C@@H]2COP(=O)(O)O[C@H]2[C@H]1OC(=O)CCC [DBcAMP, N^6,O^2' -dibutyryl-cAMP]
- growth inhibition, in words [1]: no growth inhibition
- R^I relative level [2]: 1.0 ± 0.1
- R^II relative level [3]: 0.07 ± 0.01
- R^I relative level [4]: 0.80 ± 0.10
- R^II relative level [5]: 0.15 ± 0.02
- activity at 1000 µM [6]: 100%
- activity at 1000 µM [7]: 85%
- R^I and R^II receptor levels, in words [8]: remained unchanged; also recorded: did not appreciably affect the R^I or R^II receptor levels
- p21 level, in words [9]: slight reduction in p21 level
- Change in mean tumor volume [10]: 2.60 cm^3
- Change in mean tumor volume (%) ([10]; none = 100): 99%
- tumor growth, in words [11]: only arrests this tumor growth without producing regression
- sensitivity of tumors [12]: completely resistant
- 50% growth inhibition, in words [13]: 50% growth inhibition could not be obtained
- R^I receptor protein, in words [14]: remained without appreciable change
- c-myc protein level, in words [15]: did not affect the c-myc protein level
- growth inhibition, hormone-dependent breast cancer lines [16]: growth inhibition only in the hormone-dependent breast cancer lines
- differentiation [17]: differentiated into neurone-like cells
- tumor size ([18]; 3-6 mg/kg i.v. daily over five hours, days 1-9 and 47-56): plateaued and even decreased during both infusion periods
- histology of tumors ([18]; biopsies days 2, 14, 60): evidence of differentiation during the DBcAMP infusion
- cAMP binding and cAMP-dependent protein kinase activity ([19]; cytosol and nuclei, during growth arrest): increase
- estrogen binding ([19]; during growth arrest): estrogen binding decreases
- translated p21 protein ([19]; preceding regression): sharp reduction
- tumor regression ([19]; rat, in vivo): regression of hormone-dependent mammary tumors
- tumorigenicity [20]: reported to be decreased; also recorded: unaltered
- DNA synthesis ([21]; added during first eight hours after serum addition): subsequent DNA synthesis was not delayed
- DNA synthesis ([21]; added more than eight hours after serum addition): inhibitory
